Assay results published in US5747500A, “Antiviral 2, 4-pyrimidinedione derivatives” (priority 1993, dated 1998).
Values after ≈ are worked out from the molar mass of the structure shown.

What was measured:
HIV = test: inhibition of HIV-induced cytopathic effect in MT-4 cells (MTT method); type: cell-based; conditions: for EC50: Human immunodeficiency virus 1, MT4, HIV-infected MT-4 cells, 1000 CCID50, 4 or 5 day incubation at 37° C., MTT method, read-out: ED50: Effective concentration for the inhibition of the proliferation of HIV by 50%; for S.I.: Selectivity index (CD50/ED50): ratio CD50/ED50, MT-4 cells
Protocol: The anti-HIV assays were based on the inhibition of the virus-induced cytopathic effect in MT-4 cells as described in J. Virol. Methods, 16, 171 (1987). Briefly, MT-4 cells were suspended in culture medium at 2.5×10^5 cells/ml and infected with 1000 CCID50 (50% cell culture infective dose) of HIV. Immediately, after virus infection, 100 μl of the cell suspension was brought into each well of a flat-bottomedmicrotiter tray containing various concentrations of the test compounds. After a 4 or 5 day incubation at 37° C., the number of viable cells was determined by the 3-(4,5-dimethylthiazol-2-yl)-2,5-diphenyltetrazoliumbromide (MTT) method, as disclosed in J. Virol. Methods, 20, 309 (1988).
ED50 : Effective concentration for the inhibition of the
proliferation of HIV by 50%

[1] = cytotoxicity: viability of mock-infected MT-4 host cells (MTT method); type: cell-based; conditions: human, mt-4 cells, read-out: CD50: Cytotoxic concentration that causes death of cells by 50%
Protocol: The cytotoxicity of the compounds of the present invention was assessed in parallel with their antiviral activity. It was based on the viability of mock-infected host cells as determined by the MTT methods (se J. Virol. Methods, 20, 309 (1988)).
CD50 : Cytotoxic concentration that causes death of cells by 50%

| Compound | EC50 (HIV) [mg/L] | S.I.: Selectivity index (CD50/ED50) (HIV) | CC50 [1] [mg/L] |
| --- | --- | --- | --- |
| C/C=C\Cn1c(C(=O)c2cc(C)cc(C)c2)c(CC)c(=O)[nH]c1=O [Example 68, 1-(cis-2-butenyl)-5-ethyl-6-(3,5-dimethylbenzoyl)-2,4-pyrimidinedione] | < 0.032 | > 162 | 8.21 (≈ 25.2 µM) |
| Cc1cc(C)cc(C(=O)c2c(C(C)C)c(=O)[nH]c(=O)n2C/C=C/c2ccccc2)c1 [Example 52] | < 0.009 | > 1,083 | 9.75 (≈ 24.2 µM) |
| CCc1c(C(=O)c2cc(C)cc(C)c2)n(C/C=C/CO)c(=O)[nH]c1=O [Example 84] | < 0.009 | > 6,160 | 55.4 (≈ 162 µM) |
| C/C=C/Cn1c(Sc2cc(C)cc(C)c2)c(C(C)C)c(=O)[nH]c1=O [Example 27] | < 0.009 | > 740 | 6.66 (≈ 19.3 µM) |
| Cc1cc(C)cc(C(=O)c2c(C(C)C)c(=O)[nH]c(=O)n2C/C=C/CN=[N+]=[N-])c1 [Example 74, 1-(4-azido-trans-2-butenyl)-5-isopropyl-6-(3,5-dimethylbenzoyl)-2,4-pyrimidinedione] | < 0.009 | > 954 | 8.59 (≈ 22.5 µM) |
| Cc1cc(C)cc(Oc2c(C(C)C)c(=O)[nH]c(=O)n2CC#Cc2ccccc2)c1 [Example 67, 1-(3-phenyl-2-propynyl)-5-isopropyl-6-(3,5-dimethylphenoxy)-2,4-pyrimidinedione] | < 0.009 | > 844 | 7.6 (≈ 19.6 µM) |
| CC#CCn1c(Oc2cc(C)cc(C)c2)c(C(C)C)c(=O)[nH]c1=O [Example 11, 1-(2-butynyl)-5-isopropyl-6-(3,5-dimethylphenoxy)-2,4-pyrimidinedione] | < 0.32 | > 124 | 39.9 (≈ 122 µM) |
| CCc1c(Sc2cc(C)cc(C)c2)n(C/C=C/c2ccccc2)c(=O)[nH]c1=O [Example 20] | < 0.009 | > 578 | 5.21 (≈ 13.3 µM) |
| C/C=C/Cn1c(C(=O)c2cc(C)cc(C)c2)c(CC)c(=O)[nH]c1=O [Example 44] | < 0.01 | > 3,439 | 34.4 (≈ 105 µM) |
| C/C=C\Cn1c(Oc2cc(C)cc(C)c2)c(CC)c(=O)[nH]c1=O [Example 70, 1-(cis-2-butenyl)-5-ethyl-6-(3,5-dimethylphenoxy)-2,4-pyrimidinedione] | < 0.01 | > 7,381 | 73.8 (≈ 235 µM) |
| CCc1c(C(=O)c2cc(C)cc(C)c2)n(C/C=C\c2ccccc2)c(=O)[nH]c1=O [Example 69, 1-(cis-cinnamyl)-5-ethyl-6-(3,5-dimethylbenzoyl)-2,4-pyrimidinedione] | < 0.032 | > 270 | 8.67 (≈ 22.3 µM) |
| C/C=C\Cn1c(Oc2cc(C)cc(C)c2)c(C(C)C)c(=O)[nH]c1=O [Example 71, 1-(cis-2-butenyl)-5-isopropyl-6-(3,5-dimethylphenoxy)-2,4-pyrimidinedione] | < 0.0155 | > 497 | 7.71 (≈ 23.5 µM) |
| CC/C=C/Cn1c(Oc2cc(C)cc(C)c2)c(CC)c(=O)[nH]c1=O [Example 62] | < 0.032 | > 251 | 8.05 (≈ 24.5 µM) |
| CCc1c(Oc2cc(C)cc(C)c2)n(C/C=C/c2ccccc2)c(=O)[nH]c1=O [Example 59, 1-(trans-cinnamyl)-5-ethyl-6-(3,5-dimethylphenoxy)-2,4-pyrimidinedione] | < 0.23 | > 167 | 38.6 (≈ 102 µM) |
| CCc1c(C(=O)c2cc(C)cc(C)c2)n(C/C=C/CCl)c(=O)[nH]c1=O [Example 47] | < 0.009 | > 774 | 6.7 (≈ 18.6 µM) |
| CCc1c(C(=O)c2cc(C)cc(C)c2)n(CC=C(C)C)c(=O)[nH]c1=O [Example 7, 1-(3-methyl-2-butenyl)-5-ethyl-6-(3,5-dimethylbenzoyl)-2,4-pyrimidinedione] | < 0.33 | > 84 | 27.8 (≈ 81.8 µM) |
| CC/C=C/Cn1c(C(=O)c2cc(C)cc(C)c2)c(C(C)C)c(=O)[nH]c1=O [Example 53] | < 0.009 | > 665 | 5.99 (≈ 16.9 µM) |
| CCc1c(Sc2cc(C)cc(C)c2)n(CC#Cc2ccccc2)c(=O)[nH]c1=O [Example 26, 1-(3-phenyl-2-propynyl)-5-ethyl-6-(3,5-dimethylphenylthio)-2,4-pyrimidinedione] | < 0.009 | > 547 | 4.93 (≈ 12.6 µM) |
| CC/C=C/Cn1c(C(=O)c2cc(C)cc(C)c2)c(CC)c(=O)[nH]c1=O [Example 46] | < 0.009 | > 1,015 | 9.14 (≈ 26.8 µM) |
| CCc1c(Cc2cc(C)cc(C)c2)n(CC#Cc2ccccc2)c(=O)[nH]c1=O [Example 40, 1-(3-phenyl-2-propynyl)-5-ethyl-6-(3,5-dimethylbenzyl)-2,4-pyrimidinedione] | < 0.009 | > 557 | 5.02 (≈ 13.5 µM) |
| COC(=O)/C=C/Cn1c(Sc2cc(C)cc(C)c2)c(C(C)C)c(=O)[nH]c1=O [Example 30] | < 0.009 | > 1,966 | 17.7 (≈ 45.6 µM) |
